According to ChEMBL document CHEMBL4622855, “Secondary metabolites from Isodon ternifolius (D. Don) Kudo and their anticancer activity as DNA topoisomerase IB and Tyrosyl-DNA phosphodiesterase 1 inhibitors” (Bioorg Med Chem, 2020):
Activity calls are given as the source filed them. The rule behind the calls is not given here.

Key:
HCT-116 = test: Cytotoxicity against human HCT116 cells assessed as growth inhibition after 72 hrs by MTT assay; format: functional; conditions: HCT-116, 72 h
MCF7 [1] = test: Cytotoxicity against human MCF7 cells assessed as reduction in cell viability after 72 hrs by MTT assay; format: functional; conditions: MCF7, 72 h
[2] = molecular target: Tyrosyl-DNA phosphodiesterase 1 (Homo sapiens, UniProt Q9NUW8); test: Inhibition of TDP1 (unknown origin) expressed in Escherichia coli BL21 (DE3) using 5'-FAM-AGGATCTAAAAGACTT-BHQ-3' as substrate preincubated for 30 mins followed by substrate addition by fluorescence assay
Tyrosyl-DNA phosphodiesterase 1, sequence (Q9NUW8 whole entry): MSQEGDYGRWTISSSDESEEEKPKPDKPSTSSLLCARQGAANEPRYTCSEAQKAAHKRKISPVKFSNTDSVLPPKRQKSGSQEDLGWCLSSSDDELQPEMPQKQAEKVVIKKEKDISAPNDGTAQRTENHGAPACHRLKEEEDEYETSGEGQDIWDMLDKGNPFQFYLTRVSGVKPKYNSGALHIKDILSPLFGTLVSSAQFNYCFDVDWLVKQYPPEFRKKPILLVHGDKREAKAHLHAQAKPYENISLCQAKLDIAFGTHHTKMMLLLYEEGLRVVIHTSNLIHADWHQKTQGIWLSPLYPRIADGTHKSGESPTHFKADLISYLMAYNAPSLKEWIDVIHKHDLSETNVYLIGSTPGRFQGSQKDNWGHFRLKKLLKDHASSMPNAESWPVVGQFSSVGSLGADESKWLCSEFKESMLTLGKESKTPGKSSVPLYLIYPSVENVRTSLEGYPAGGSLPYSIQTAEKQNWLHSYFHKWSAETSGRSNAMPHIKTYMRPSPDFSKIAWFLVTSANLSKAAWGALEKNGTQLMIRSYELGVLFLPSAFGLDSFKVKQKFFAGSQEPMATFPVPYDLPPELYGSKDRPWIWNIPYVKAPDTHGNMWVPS

A549 = test: Cytotoxicity against human A549 cells assessed as growth inhibition after 72 hrs by MTT assay; format: functional; conditions: A549, 72 h
[3] = molecular target: T1, DNA topoisomerase I (Bos taurus) (UniProt F1MN93); test: Inhibition of calf thymus Top1 assessed as reduction in supercoiled pBR322 DNA relaxation at 100 uM measured after 30 mins by agarose gel electrophoresis relative to camptothecin
T1 sequence (whole entry): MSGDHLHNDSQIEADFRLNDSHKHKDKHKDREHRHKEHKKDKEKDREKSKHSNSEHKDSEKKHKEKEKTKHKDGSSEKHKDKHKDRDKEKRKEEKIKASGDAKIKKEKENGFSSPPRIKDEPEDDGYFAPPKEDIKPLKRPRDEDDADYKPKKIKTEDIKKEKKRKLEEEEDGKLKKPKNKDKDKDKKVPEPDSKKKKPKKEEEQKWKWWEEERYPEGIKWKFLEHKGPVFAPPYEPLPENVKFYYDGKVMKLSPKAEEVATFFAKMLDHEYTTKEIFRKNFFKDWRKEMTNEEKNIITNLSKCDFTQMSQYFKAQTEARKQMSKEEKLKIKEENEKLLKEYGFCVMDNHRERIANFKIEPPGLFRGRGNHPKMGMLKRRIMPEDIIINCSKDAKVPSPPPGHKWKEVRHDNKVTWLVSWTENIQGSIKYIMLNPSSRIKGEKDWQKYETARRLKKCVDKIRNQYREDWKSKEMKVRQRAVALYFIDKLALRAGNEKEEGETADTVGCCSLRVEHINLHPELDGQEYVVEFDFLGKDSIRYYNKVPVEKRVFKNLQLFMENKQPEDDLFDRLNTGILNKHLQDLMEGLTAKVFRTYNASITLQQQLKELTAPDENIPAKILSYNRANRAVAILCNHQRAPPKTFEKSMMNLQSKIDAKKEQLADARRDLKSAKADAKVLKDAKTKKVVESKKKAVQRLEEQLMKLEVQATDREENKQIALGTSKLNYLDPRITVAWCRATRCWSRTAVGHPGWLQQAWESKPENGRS

MCF7 [4] = test: Synergistic antiproliferative activity against human MCF7 cells assessed as combination index at 12.5 to 50 uM after 72 hrs in presence of TOP1 inhibitor topotecan by MTT assay; format: functional
[5] = molecular target: T1, DNA topoisomerase I (Bos taurus); test: Inhibition of calf thymus Top1 assessed as reduction in supercoiled pBR322 DNA relaxation measured after 30 mins by agarose gel electrophoresis
[6] = molecular target: T1, DNA topoisomerase I (Bos taurus); test: Inhibition of calf thymus Top1 assessed as reduction in Top1-supercoiled pBR322 DNA covalent cleavage formation at 25 to 50 uM measured after 30 mins by electrophoretic mobility shift assay
[7] = molecular target: T1, DNA topoisomerase I (Bos taurus); test: Inhibition of calf thymus Top1-mediated supercoiled pBR322 DNA cleavage assessed as nicked DNA content at 25 uM measured after 30 mins by ethidium bromide staining agarose gel electrophoresis; parameters: scale not given: the % may be the effect or the level left
[8] = molecular target: T1, DNA topoisomerase I (Bos taurus); test: Inhibition of calf thymus Top1-mediated supercoiled pBR322 DNA cleavage assessed as nicked DNA content at 50 uM measured after 30 mins by ethidium bromide staining agarose gel electrophoresis; parameters: scale not given: the % may be the effect or the level left
MCF7 [9] = test: Induction of DNA damage in human MCF7 cells assessed as increase in gammaH2AX foci formation up to 9 uM measured after 12 hrs by immunofluorescence assay; format: functional, cell-based

IC50 [2] [µM] | inhibition [3] [%] | inhibition [5] | inhibition [6] | Activity [7] [%] | Activity [8] [%] | SMILES | GI50 (HCT-116) [µM] | GI50 (MCF7 [1]) [µM] | GI50 (A549) [µM] | CI (MCF7 [4]) | Activity (MCF7 [9])
> 100 | > 90 |  |  |  |  | C[C@@H]1CC[C@]2(C(=O)O)CC[C@]3(C)C(=CC[C@@H]4[C@@]5(C)C[C@@H](O)[C@@H](O)C(C)(C)[C@@H]5CC[C@]43C)[C@@H]2[C@]1(C)O [EUSCAPHIC ACID] | 22 | 41 | 43 |  | 
 | > 90 | Dose-dependent effect | Active | 11 | 9 | C[C@H]1[C@H](C)CC[C@]2(C(=O)O)CC[C@]3(C)C(=CC[C@@H]4[C@@]5(C)CCC(=O)C(C)(C)[C@@H]5CC[C@]43C)[C@H]12 [URSONIC ACID] | 5.3 | 12 | 57 |  | inactive
 | 0 |  |  |  |  | CC1(C)CC[C@]2(C(=O)O)CC[C@]3(C)C(=CC[C@@H]4[C@@]5(C)C[C@@H](O)[C@@H](O)[C@@](C)(CO)[C@@H]5CC[C@]43C)[C@@H]2C1 | > 100 | > 100 | > 100 |  | 
> 100 | 30 to 59 |  |  |  |  | CO[C@@H]1C[C@]2(C)[C@H]3CC=C4[C@H]5[C@](C(=O)O)(CC[C@@H](C)[C@@]5(C)O)CC[C@@]4(C)[C@]3(C)CC[C@H]2C(C)(C)CO1 | 37 | 31 | 63 |  | 

The remaining lines, values behind:

SMILES | IC50 [2] [µM] | inhibition [3] [%] | inhibition [5] | inhibition [6] | Activity [7] [%] | Activity [8] [%] | GI50 (HCT-116) [µM] | GI50 (MCF7 [1]) [µM] | GI50 (A549) [µM] | CI (MCF7 [4]) | Activity (MCF7 [9])
C[C@@H]1CC[C@@]23CC[C@]4(C)[C@@](C=C[C@@H]5[C@@]6(C)CC[C@H](O)C(C)(C)[C@@H]6CC[C@]54C)(OC2=O)C3[C@H]1C (stereo partly specified) |  | 0 |  |  |  |  | > 100 | > 100 | > 100 |  | 
CC1(C)CC[C@]2(C(=O)O)CC[C@]3(C)C(=CC[C@@H]4[C@@]5(C)C[C@@H](O)[C@H](O)[C@](C)(CO)[C@@H]5CC[C@]43C)[C@@H]2C1 |  | 60 to 89 |  |  |  |  | 29 | 14 | 22 |  | 
CC(C)c1ccc2c(c1O)CC[C@@H]1[C@@](C)(CO)CCC[C@@]21C | > 100 | 0 |  |  |  |  | > 100 | > 100 | > 100 |  | 
CC(C)c1ccc(O)c2c1CC[C@H]1[C@@](C)(C(=O)O)CCC[C@]21C | > 100 | 30 to 59 |  |  |  |  | 31 | 60 | 41 |  | 
COc1cc(O)ccc1/C=C/C(=O)c1ccc(O)cc1 [ECHINATIN] | 45 | 30 to 59 |  |  |  |  | 64 | 43 | 36 | <0.3 | 
COc1cc(/C=C/C(=O)O[C@H]2[C@H](O)C[C@]3(C)[C@H]4CC=C5[C@@H]6CC(C)(C)CC[C@]6(C(=O)O)CC[C@@]5(C)[C@]4(C)CC[C@H]3C2(C)C)ccc1O | > 100 | > 90 | Dose-dependent effect | Active | 9 | 10 | 22 | 67 | 59 |  | 
CC(C)c1cc2c(cc1O)[C@]1(C)CCC[C@](C)(C(=O)O)[C@H]1CC2 | > 100 | 30 to 59 |  |  |  |  | 68 | 60 | 36 |  | 
CC(C)c1cc2c(cc1O)[C@@]1(C)CCC[C@](C)(CO)[C@@H]1CC2 | > 100 | 30 to 59 |  |  |  |  | 51 | 92 | 91 |  | 
C=C1C(=O)[C@]23C[C@H]1CC[C@H]2[C@]1(C)CC[C@@H](O)C(C)(C)[C@H]1C[C@@H]3O | > 100 | 60 to 89 |  |  |  |  | 2.7 | 3.5 | 4.8 |  | 
